Reference: patent US9616081B2, “Antitumor agent including low-dose irinotecan hydrochloride hydrate” (TAIHO PHARMACEUTICAL CO., LTD., priority 2013, dated 2017)
Where a name gives a salt, the structure may show the parent alone.

How the values were obtained:
[1] = dose of 111 mg/kg/day; cited from earlier work
[2] = test system: human colon cancer cell line (KM20C); assay: Reference Example: survival of mice intraperitoneally transplanted with KM20C, monotherapy; format: in vivo; settings: i.v., weekly; for ILS (increase in life span): 6 weeks from Day 3; for Survival time (day) Mean ± SD: 6 weeks from Day 3, BALB/cA Jcl-nu mice
Procedure: Cultured cells (1×10^7 cells/mouse) of human colon cancer cell line (KM20C) were intraperitoneally transplanted into 5-6 weeks old BALB/cA Jcl-nu mice after birth, and the mice were assigned to each group so that the mean body weight of each group became equal. The date on which such grouping (n=10) was performed was taken as Day 0.
[…]. Starting the dug administration from Day 3, a 5-days' daily oral administration of the FTD/TPI combination drug with 2-days' rest was performed for 6 weeks, and CPT-11 was administered once in a week from the tail vein for 6 weeks.
As an index of the antitumor effect, the number of survivors of each group of mice and the survival time of each group was compared.

[3] = test system: human gastric cancer cell line (SC-2); assay: Example 3: combined administration test, SC-2 tumor in mice (RTV, TGI); settings: Day 1, 8, i.v., q.d.

## CCc1c2c(nc3ccc(OC(=O)N4CCC(N5CCCCC5)CC4)cc13)-c1cc3c(c(=O)n1C2)COC(=O)[C@]3(O)CC [CPT-11, irinotecan hydrochloride hydrate]
[1]
  death case reported: death case
[2]; 80 mg/kg/day
  ILS (increase in life span): 54.0%
  Survival time (day) Mean ± SD: 61.6 ± 12.6 days
[2]; 100 mg/kg/day
  ILS (increase in life span): 81.3%
  Survival time (day) Mean ± SD: 72.5 ± 12.3 days
[3]; 40 mg/kg/day
  TGI, tumor growth inhibition rate on Day 15: 64.6%
[3]; 80 mg/kg/day
  TGI, tumor growth inhibition rate on Day 15: 79.4%
